The source of these data is ChEMBL document CHEMBL1136126, “Development of 3D-QSAR models in cyclic ureidobenzenesulfonamides: human beta3-adrenergic receptor agonist” (Bioorg Med Chem Lett, 2003).

Broadly, the pEC50 is the EC50 on a negative log10 scale, so that one unit is a factor of ten. Higher therefore signals a small EC50.

pEC50: −log10 of the molar value.

For assay [1], the target named is T1, Beta-3 adrenergic receptor (Homo sapiens, UniProt P13945). Description: (§1) In vitro effective concentration against beta-3 adrenergic receptor.
The target in assay [2] is T1, Beta-3 adrenergic receptor. Described as §1. The source holds these as a separate data set.

T1 sequence (P13945 whole entry): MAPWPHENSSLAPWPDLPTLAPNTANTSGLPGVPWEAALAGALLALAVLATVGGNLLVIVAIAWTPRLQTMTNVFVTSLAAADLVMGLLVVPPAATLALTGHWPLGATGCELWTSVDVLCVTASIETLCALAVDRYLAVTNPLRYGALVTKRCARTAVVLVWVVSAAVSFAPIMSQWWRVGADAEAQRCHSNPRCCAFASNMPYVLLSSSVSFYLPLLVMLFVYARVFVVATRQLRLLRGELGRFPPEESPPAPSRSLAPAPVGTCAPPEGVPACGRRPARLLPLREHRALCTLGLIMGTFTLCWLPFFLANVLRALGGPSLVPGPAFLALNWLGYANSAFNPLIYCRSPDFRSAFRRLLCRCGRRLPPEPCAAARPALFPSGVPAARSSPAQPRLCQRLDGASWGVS

For the compound `CCCCCCCCN1NCN(c2ccc(S(=O)(=O)Nc3ccc(CCNC[C@H](O)c4cccnc4)cc3)cc2)C1=O`, the negative-log EC50 (pEC50) in assay [1] and in assay [2] was 7.82 each time.

Regarding `CCCCCCCCN1CNN(c2ccc(S(=O)(=O)Nc3ccc(CCNC[C@H](O)c4cccnc4)cc3)cc2)C1=O`, the pEC50 in assay [1] and in assay [2] was 8.27 in each case.

Regarding `CCCCCCN1CC(=O)N(c2ccc(S(=O)(=O)Nc3ccc(CCNC[C@H](O)c4cccnc4)cc3)cc2)C1=O`, in assay [1], the pEC50 was 6.56.
